From publication PMC3189958, “Salivary PYY: A Putative Bypass to Satiety” (PLoS ONE, 2011)
No end group written: not given here.

Experiments:
[1] = target: T1, Y2 receptor (Mus musculus, UniProt P97295); experiment: Y2R antagonist study: oral spray of BIIE0246/PYY3-36 mixture, 2 hr FI after 24 hr fast; type: in vivo
T1 construct: from tissue; host or cells: live mice; oral mucosa / tongue epithelium
T1 sequence (P97295 1-381): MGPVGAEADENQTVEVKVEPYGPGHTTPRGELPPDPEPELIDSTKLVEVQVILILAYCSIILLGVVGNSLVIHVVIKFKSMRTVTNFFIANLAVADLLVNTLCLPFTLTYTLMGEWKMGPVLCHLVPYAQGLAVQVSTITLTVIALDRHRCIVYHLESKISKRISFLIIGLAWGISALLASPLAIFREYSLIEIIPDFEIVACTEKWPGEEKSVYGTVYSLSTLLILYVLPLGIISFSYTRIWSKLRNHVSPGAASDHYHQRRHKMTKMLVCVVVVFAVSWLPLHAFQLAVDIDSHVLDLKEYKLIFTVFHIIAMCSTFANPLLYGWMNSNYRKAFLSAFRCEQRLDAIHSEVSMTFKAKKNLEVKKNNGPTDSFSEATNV
Procedure: Direct proof of PYY3-36/Y2R interaction was obtained by utilizing a selective Y2 receptor antagonist BIIE0246 [26]. The antagonist and PYY3-36 agonist (12 mg/100 g BW) were mixed at the 50∶1 molar ratio, respectively, and the mixture was used to treat fasted mice as described above (Fig. 6H).
(§1) One ml total volume sterile vials were obtained from Sephora. Murine PYY3-36 (Bachem) was diluted in sterile H2O. All 8–10 weeks old mice were individually housed. Mice were conditioned to the oral spray with vehicle after 24 hours fast on three separate occasions. Groups were randomized by FI and BW. […] The applied dose was estimated using calculated average volume ([…]) delivered per puff. Food was provided 10 min after the spray was applied and the amount consumed was measured at either 1 hr after the treatment, or at several time points (1, 2, 4, 6, 12, 18, and 24 hours). Taking into account the nocturnal feeding pattern, the experiment was conducted during the night with the first measurement taken at 2000 hrs. Each experiment was done at least 3 times in a crossover manner with 8 mice per group. For the Y2R antagonist study, BIIE0246 compound (Tocris Bioscience, Ellisville, MO) was dissolved in 100% EtOH (0.2 mM) and the stock solution was mixed with PYY3-36 aqueous solution at the 50∶1 molar ratio (BIIE0246/PYY3-36) with the final concentration of 2% EtOH in the mixture. […]

[2] = test system: DIO C57Bl/6J mice; experiment: Repeated once-a-day oral spray in DIO mice fed high fat diet ad libitum (FI and BW); type: in vivo, mouse; settings: daily oral spray 18 mg/100 g, n = 9 per group
Procedure: Figure 6 Oral PYY3-36 augmentation therapy. […] Experiments for each peptide were conducted separately and the results were integrated in one graph as fractions of average amount of FI consumed by the control group. […] (B) Dose-response effect of PYY3-36 on 2 hr FI vs. control (n = 8 each group). (C) Effect of PYY3-36 oral spray on FI in C57Bl/6J mice measured at 1, 2, 6, 12, 18, and 24 hr post treatment (n = 8/group). (D) Effect of PYY3-36 oral spray on FI in PYY^-/- mice measured at 1, 2, 6, 12, 18, and 24 hr post treatment (n = 8/group). (E) Average 24-hr FI in DIO mice treated with daily PYY3-36 OS (18 mg/100 g). (F) Effect of daily PYY3-36 OS (18 mg/100 g) treatment on BW change in DIO C57Bl/6J mice (n = 9 per each group). (G) Concentration of PYY3-36 in plasma of PYY KO mice 10 min after PYY3-36 (18 mg/100 g BW), or control oral spray vs. PYY3-36 injected i.p. (6 mg/100 g BW) (n = 10 per group). (H) Effect of Y2R specific antagonist BIIE0246 on anorexigenic action of PYY3-36 (n = 8 per each group) measured as 2 hr FI after 24 hr fast.*P<0.05, **P<0.01.
Because of the sustained 24-hr effect, we tested whether repeated once-a-day treatment would also affect the FI and BW accumulation over extended period of time when animals were fed high fat (HF) diet ad libitum.

[3] = test system: rodents; settings: i.p., ref [16]; cited from earlier work
[4] = test system: PYY KO mice; experiment: Oral spray satiation study, FI over 24 hours after single treatment, PYY KO mice; type: in vivo, mouse; settings: n = 8/group
Procedure: To investigate the duration of action of orally applied PYY3-36 we conducted standard satiation studies in C57Bl/6J as well as in PYY KO mice measuring FI over 24 hours after single treatment.
as §1, with “mixture. Prior to this experiment, mice were conditioned to 2% EtOH spray on three separate occasions.” for “mixture.”

[5] = test system: C57Bl/6J mice; experiment: Oral spray acute augmentation: food intake after 24 hours fasting; type: in vivo, mouse
Procedure: Figure 6 Oral PYY3-36 augmentation therapy. […] (B) Dose-response effect of PYY3-36 on 2 hr FI vs. control (n = 8 each group). (C) Effect of PYY3-36 oral spray on FI in C57Bl/6J mice measured at 1, 2, 6, 12, 18, and 24 hr post treatment (n = 8/group). (D) Effect of PYY3-36 oral spray on FI in PYY^-/- mice measured at 1, 2, 6, 12, 18, and 24 hr post treatment (n = 8/group). (E) Average 24-hr FI in DIO mice treated with daily PYY3-36 OS (18 mg/100 g). (F) Effect of daily PYY3-36 OS (18 mg/100 g) treatment on BW change in DIO C57Bl/6J mice (n = 9 per each group). (G) Concentration of PYY3-36 in plasma of PYY KO mice 10 min after PYY3-36 (18 mg/100 g BW), or control oral spray vs. PYY3-36 injected i.p. (6 mg/100 g BW) (n = 10 per group).
One ml total volume sterile vials were obtained from Sephora. Murine PYY3-36 (Bachem) was diluted in sterile H2O. All 8–10 weeks old mice were individually housed. Mice were conditioned to the oral spray with vehicle after 24 hours fast on three separate occasions. Groups were randomized by FI and BW. […] The applied dose was estimated using calculated average volume ([…]) delivered per puff. Food was provided 10 min after the spray was applied and the amount consumed was measured at either 1 hr after the treatment, or at several time points (1, 2, 4, 6, 12, 18, and 24 hours). Taking into account the nocturnal feeding pattern, the experiment was conducted during the night with the first measurement taken at 2000 hrs. Each experiment was done at least 3 times in a crossover manner with 8 mice per group. For the Y2R antagonist study, BIIE0246 compound (Tocris Bioscience, Ellisville, MO) was dissolved in 100% EtOH (0.2 mM) and the stock solution was mixed with PYY3-36 aqueous solution at the 50∶1 molar ratio (BIIE0246/PYY3-36) with the final concentration of 2% EtOH in the mixture. Prior to this experiment, mice were conditioned to 2% EtOH spray on three separate occasions. Wherever practical, the behavioral experiments were conducted in a blind fashion with the personnel uninformed about the treatment regimen.

[6] = Concentration of PYY3-36 in plasma after oral spray or i.p. injection (RIA); type: in vivo, mouse; settings: PYY KO mice, n = 10 per group
Procedure: To exclude potential interference with circulating background PYY in the plasma, we used PYY KO mice.
Blood was collected from facial vein puncture into EDTA-coated tubes (Capiject) containing protease inhibitors as described for saliva collection. Plasma samples were frozen at −80°C until analyzed.
PYY3-36 from saliva and plasma was measured by PYY3-36 RIA kit (Phoenix Pharmaceuticals). The identification of PYY3-36 from human saliva was performed by reverse-phase high performance liquid chromatography (RP-HPLC) followed by Matrix-Assisted Laser Desorption Ionization – Time of Flight (MALDI-TOF) mass spectrometry (MS). PYY3-36 synthetic peptide (Bachem) was used for calibration of all purification steps. Briefly, saliva was pre-purified using a Sep-Pak C18 cartridge (Waters) followed by purification on RP-HPLC uBondapak C18 column (Waters) as described. The PYY3-36-containing fraction was collected, air dried and reconstituted in 0.1% formic acid in 50% acetonitrile/water prior to analysis with MALDI-TOF as described, [40].

[7] = PYY3-36 in saliva after i.p. injection (RIA); type: in vivo, mouse; settings: male C57Bl/6J mice, 10 min post injection, n = 10 per group
Procedure: Some proteins enter saliva from salivary glands where they are expressed and secreted in an exocrine fashion via zymogen granules. Other peptides can enter saliva as a transudate from serum. To establish the source of salivary PYY3-36 we asked whether peptide circulating in a bloodstream can be transported into saliva. To this end, mice were injected intraperitoneally (i.p.) with increasing doses of murine synthetic PYY3-36 (Fig. 1F).
Salivation was stimulated as described earlier. Whole saliva was collected for 5 min from the oral cavity into Eppendorf tubes containing 5000 U Kallikrein inhibitor (Biomedicals) and 50 mM DPP-IV inhibitor (Linco Research). Saliva samples were frozen at −80°C until analyzed.
PYY3-36 from saliva and plasma was measured by PYY3-36 RIA kit (Phoenix Pharmaceuticals). The identification of PYY3-36 from human saliva was performed by reverse-phase high performance liquid chromatography (RP-HPLC) followed by Matrix-Assisted Laser Desorption Ionization – Time of Flight (MALDI-TOF) mass spectrometry (MS). PYY3-36 synthetic peptide (Bachem) was used for calibration of all purification steps. Briefly, saliva was pre-purified using a Sep-Pak C18 cartridge (Waters) followed by purification on RP-HPLC uBondapak C18 column (Waters) as described. […]

N=C(N)NCCC[C@H](NC(=O)CC1(CC(=O)N2CCN(C3c4ccccc4NC(=O)c4ccccc43)CC2)CCCC1)C(=O)NCCn1c(=O)n(-c2ccccc2)n(-c2ccccc2)c1=O (stereo partly shown) [BIIE0246]
effect of antagonist alone on 2 hr FI ([1]; BIIE0246 alone, data not shown): no effect on 2 hr FI | effect of antagonist on the anorexigenic action of PYY3-36, 2 hr FI ([1]; BIIE0246 mixed with PYY3-36 (12 mg/100 g BW) at 50:1 molar ratio, 2% EtOH, after 24 hr fast, n = 8 per group): completely ablated the anorexigenic effect of PYY3-36

Peptide YY3-36 [PYY3-36]
BW accumulation ([2]; DIO C57Bl/6J mice, HF diet ad libitum): retarded BW accumulation which became significantly on day 17th | average 24-hr FI of HF food ([2]; DIO mice): significantly less HF food | FI after intraperitoneal injection [3]: dose-dependent reduction in FI | response of FI over 24 hours to the low dose ([4]; PYY KO mice, low dose 3 mg/100 g BW): responded to the treatment in significant manner observed after 18 and 24 hrs post experiment | duration of anorexigenic response, FI over 24 hours after single treatment ([4]; PYY-/- mice, high dose 12 mg/100 g BW): significant until the next treatment 24 hrs later | duration of anorexigenic response, FI over 24 hours after single treatment ([5]; C57Bl/6J mice, oral spray, high dose 12 mg/100 g BW, n = 8/group): significant until the next treatment 24 hrs later | response of FI over 24 hours to the low dose ([5]; C57Bl/6J mice, oral spray, low dose 3 mg/100 g BW, n = 8/group): only PYY KO mice responded | one hour FI as % of control values at the maximum applied dose ([5]; oral spray, dose-response, 12 mg/100 g, after 24 hr fast, n = 8 each group (legend Fig. 6B says 2 hr FI)): 81% | food consumed less than the control group, 1 hour FI ([5]; oral spray, single puff, 3 mg/100 g BW, after 24 hours of fasting, food given 10 min after spray, average, n = 10 per group, C57Bl/6J mice): 12.3% | PYY3-36 in plasma 10 min after i.p. injection ([6]; i.p. 6 mg/100g BW): significant increase in PYY3-36 found in plasma | PYY3-36 in plasma 10 min after oral spray ([6]; oral spray 18 mg/100 g BW): no detectable PYY3-36 in the plasma | PYY3-36 in saliva after i.p. injection of increasing doses [7]: significant relationship between the injected dose and the concentration of the peptide detected in saliva

amylin (KCNTATCATQRLANFLVRSSNNLGPVLPPTNVGSNTY; ends and bridges not checked; cysteine pairing not given here; UniProt P12968 38-74, looked up) [endocrine peptide tested by oral spray application]
effect of oral spray application on FI ([5]; oral spray, similar approach, data not shown): no change of FI

glucagon-like peptide-1 (HAEGTFTSDVSSYLEGQAAKEFIAWLVKGR; ends and bridges not checked; UniProt P55095 98-127, looked up) [GLP-1]
effect of oral spray on 1 hour FI (satiation) vs control oral spray ([5]; oral spray after 24 hours fasting, GLP-1 3 mg/100 g BW, Exendin-4 10 mg/100 g BW, n = 10 each group): induced stronger satiation
